# Source: BindingDB's records for doi:10.1016/0024-3205(84)90540-x (Schering-Plough, 1984)
# Counter-ions that a name gives are not always drawn.
# Target: D(2) dopamine receptor (Rattus norvegicus, UniProt P61169)
# Sequence (P61169 whole entry): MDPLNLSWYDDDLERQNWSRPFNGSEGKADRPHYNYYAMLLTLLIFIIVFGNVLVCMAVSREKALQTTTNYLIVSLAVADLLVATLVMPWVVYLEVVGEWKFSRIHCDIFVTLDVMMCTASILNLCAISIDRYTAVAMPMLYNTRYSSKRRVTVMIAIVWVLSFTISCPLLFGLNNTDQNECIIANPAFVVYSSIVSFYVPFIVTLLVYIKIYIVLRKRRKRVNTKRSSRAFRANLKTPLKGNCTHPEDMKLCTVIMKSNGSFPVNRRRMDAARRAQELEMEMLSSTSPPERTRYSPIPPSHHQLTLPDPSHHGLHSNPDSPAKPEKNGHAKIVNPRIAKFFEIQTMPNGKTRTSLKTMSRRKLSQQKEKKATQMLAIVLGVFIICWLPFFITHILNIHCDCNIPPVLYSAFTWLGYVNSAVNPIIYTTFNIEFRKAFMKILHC
row,SMILES,Ki [nM]
1,CC[C@@H](CO)NC(=O)[C@@H]1C=C2c3cccc4c3c(cn4C)C[C@H]2N(C)C1,116
2,"O=C(c1ccc(F)cc1)C1CCN(CCn2c(=O)[nH]c3ccccc3c2=O)CC1 [3-(2-{4-[(4-fluorophenyl)carbonyl]piperidin-1-yl}ethyl)-1,2,3,4-tetrahydroquinazoline-2,4-dione]",397
3,"CN1C2CC(OC(=O)C(CO)c3ccccc3)CC1C1OC12 (stereo unspecified) [3-hydroxy-2-phenyl-propionic acid 9-methyl-3-oxa-9-aza-tricyclo[3.3.1.0*2,4*]non-7-yl ester]",> 10000
4,OCCN1CCN(CCCN2c3ccccc3Sc3ccc(Cl)cc32)CC1 [4-[3-(2-chlorophenothiazin-10-yl)propyl]-1-piperazineethanol],1.3
5,"NCCCC(=O)O [4-amino-n-[2,3-3H]butyric acid]",> 10000
6,OCCC1CCN(CCC=C2c3ccc(F)cc3Sc3ccc(C(F)(F)F)cc32)CC1 [CAS_60197-32-2],1
7,N[C@@H](CCC(=O)O)C(=O)O [L-Glutamic acid],> 10000
8,"NCC(O)c1ccc(O)c(O)c1 (stereo not drawn) [Noradrenaline,(+)]",> 10000
9,NCCc1c[nH]cn1 [[3H]histamine],> 10000
10,OCCC1CCN(CC/C=C2\c3ccc(F)cc3Sc3ccc(C(F)(F)F)cc32)CC1 [trans piflutixol-(E)],73

# Target: D(1A) dopamine receptor (Rattus norvegicus, UniProt P18901)
# Sequence (P18901 whole entry): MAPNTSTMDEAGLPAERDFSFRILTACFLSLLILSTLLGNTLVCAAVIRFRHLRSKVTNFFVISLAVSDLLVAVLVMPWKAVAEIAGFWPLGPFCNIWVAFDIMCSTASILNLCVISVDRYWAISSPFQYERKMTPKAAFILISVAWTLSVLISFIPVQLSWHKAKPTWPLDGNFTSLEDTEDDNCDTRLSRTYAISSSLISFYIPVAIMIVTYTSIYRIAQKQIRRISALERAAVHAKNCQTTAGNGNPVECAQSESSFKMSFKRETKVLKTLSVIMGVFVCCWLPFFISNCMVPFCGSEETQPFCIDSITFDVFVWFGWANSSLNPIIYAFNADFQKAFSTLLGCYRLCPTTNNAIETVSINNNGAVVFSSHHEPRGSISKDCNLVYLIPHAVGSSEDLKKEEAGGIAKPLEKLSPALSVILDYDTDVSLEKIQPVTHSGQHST
row,SMILES,Ki [nM]
1,CC[C@@H](CO)NC(=O)[C@@H]1C=C2c3cccc4c3c(cn4C)C[C@H]2N(C)C1,217
2,OCCN1CCN(CCCN2c3ccccc3Sc3ccc(C(F)(F)F)cc32)CC1 [2-[4-[3-[2-(trifluoromethyl)phenothiazin-10-yl]propyl]piperazin-1-yl]ethanol;hydrochloride],11.2
3,"O=C(c1ccc(F)cc1)C1CCN(CCn2c(=O)[nH]c3ccccc3c2=O)CC1 [3-(2-{4-[(4-fluorophenyl)carbonyl]piperidin-1-yl}ethyl)-1,2,3,4-tetrahydroquinazoline-2,4-dione]",1010
4,"CN1C2CC(OC(=O)C(CO)c3ccccc3)CC1C1OC12 (stereo unspecified) [3-hydroxy-2-phenyl-propionic acid 9-methyl-3-oxa-9-aza-tricyclo[3.3.1.0*2,4*]non-7-yl ester]",> 10000
5,OCCN1CCN(CCCN2c3ccccc3Sc3ccc(Cl)cc32)CC1 [4-[3-(2-chlorophenothiazin-10-yl)propyl]-1-piperazineethanol],29.9
6,"NCCCC(=O)O [4-amino-n-[2,3-3H]butyric acid]",> 10000
7,OCCC1CCN(CCC=C2c3ccc(F)cc3Sc3ccc(C(F)(F)F)cc32)CC1 [CAS_60197-32-2],2.9
8,N[C@@H](CCC(=O)O)C(=O)O [L-Glutamic acid],> 10000
9,"NCC(O)c1ccc(O)c(O)c1 (stereo not drawn) [Noradrenaline,(+)]",> 10000
10,NCCc1c[nH]cn1 [[3H]histamine],> 10000
11,OCCC1CCN(CC/C=C2\c3ccc(F)cc3Sc3ccc(C(F)(F)F)cc32)CC1 [trans piflutixol-(E)],95
